Test results from patent US11938121B2, “Treatment of infections and biofilm formation using a cellulose synthase inhibitor” (Purdue Research Foundation, priority 2020, dated 2024).

Key:
[1] = system: AtCESA6 (cesa6 alleles es20r1-es20r15); experiment: Root growth of EMS-induced cesa6 mutants es20r1-es20r15 on ES20 analogs; type: in vivo, Arabidopsis thaliana; details: compared with wild-type/control plants
From the text: A subset of active ES20 analogs likely target the catalytic domain of AtCESA6. […] Since ES20 and the nine active ES20 analogs share highly similar structures, we reasoned whether these active analogs target AtCESA6 as well. We therefore examined the growth of es20r1-es20r15 plants in the presence of nine active ES20 analogs compared to wild-type plants.
(§1) To test the inhibitory effects of different chemicals on plant growth, wild-type Arabidopsis Col-0 plants were used. The seeds of plants used for growth assays or live cell imaging were sequentially sterilized with 50% bleach and 75% ethanol. […] To quantify the inhibitory effects of different ES20 active analogs on the root growth of Arabidopsis wildtype, EMS mutants, and transgenic plants expressing mutated AtCESA6 in prc1-1 background, sterilized Col-0, mutants, and transgenic plants seeds were sown on gridded Petri plates containing ½-strength MS medium supplemented with different concentrations of ES20 analogs. […] The plates were scanned using an Epson Perfection V550 scanner after 7 days of growth, and the root lengths of plants were quantified using ImageJ software. […] The Petri dishes were scanned, and hypocotyl length was measured using ImageJ. Transgenic plants expressing fluorescence-tagged PIN2, PIP2a, HDEL, VHA-a1, and GOT1p were as reported previously (Xu and Scheres, Plant Cell, 2005, 17, 525-536).

[2] = system: AtCESA6 carrying missense mutations in prc1-1; experiment: Root growth of transgenic plants expressing mutated AtCESA6 in prc1-1; type: in vivo, Arabidopsis thaliana; details: D562N, D564N, D785N, Q823E, R826A, W827A in prc1-1
From the text: We then examined whether transgenic plants expressing AtCESA6 with predicted missense mutations at the catalytic site in prc1-1 background would have altered sensitivity to active ES20 analogs. […] However, the responses of two transgenic lines expressing AtCESA6 carrying missense mutations outside of the catalytic site (L365F and D395N) to nine active ES20 analogs were similar to those of wild-type plants (FIG. 2B).
as §1, with “Transgenic plants expressing fluorescence-tagged PIN2, PIP2a, HDEL, VHA-a1, and GOT1p were as reported previously (Xu and Scheres, Plant Cell, 2005, 17, 525-536).” left out

rice (Oryza sativa) = experiment: Rice seedling root growth; type: in vivo; details: 20 μM
From the text: ES20 has broad spectrum inhibitory effect on the growth of both dicotyledonous and monocotyledonous plants (Huang and Zhang, Plant Signal Behav. 2020, 15, 1780039). We tested whether ES20-1 has stronger inhibitory effect on the growth of monocotyledon plants than ES20. We grew rice (Oryza sativa) and maize (Zea mays) seedlings on the same concentrations of ES20 and ES20-1 and compared their effects on growth.

[3] = biological target: T1, GFP-CESA6c (central cytosolic domain of AtCESA6) (Arabidopsis thaliana, UniProt Q94JQ6); experiment: MST assay with GFP-CESA6c; type: binding
T1 construct: made in house; host or cells: E. coli
From the text: (§2) To obtain the central cytosolic domain of AtCESA6 for the MST assay, we inserted the GFP coding sequence into the SacI and PstI restriction enzyme sites of the pRSF-Duet-1 vector (Huang et al., 2020). The GFP coding sequence was amplified from the pUBN-GFP-DEST vector. The sequence encoding the central cytosolic domain of CESA6 (CESA6c) was amplified from Col-0 cDNA and fused with GFP at the C-terminus. CESA6c construct was used as a template for creating CESA6c^P595S construct by site-directed mutagenesis. Protein purification was performed as previously described (Huang et al., 2020).
(§3) MST assays were carried out using a Monolith NT.115 (NanoTemper) machine at the Chemical Genomics Facility at Purdue University. […] The ES20-1 was dissolved in DMSO, and the final concentration of DMSO was 5% (vol/vol). MST standard capillaries were used to load the samples into the MST instrument. Triplicate reactions were performed for each test. The MST data were processed using MO. Affinity Analysis Version 2.3 software.

GFP-CESA6c^P595S = biological target: T2, GFP-CESA6c^P595S (Arabidopsis thaliana, UniProt Q94JQ6, P595S); experiment: MST assay with GFP-CESA6c^P595S; type: binding
T2 construct: We purified AtCESA6 central cytoplasmic domain carrying missense mutation P595S (CESA6c^P595S); made in house; host or cells: E. coli (inferred from the wild-type CESA6c construct that served as template)
From the text: as §2, §3

Cc1ccccc1C(=O)NNC(=S)NC(=O)c1ccccc1 [ES20-1]
sensitivity of es20r1-es20r15 mutants in growth [1]: All 15 mutants, which show reduced sensitivity to ES20, also showed reduced sensitivity
sensitivity of transgenic lines with AtCESA6 catalytic site mutations [2]: Reduced sensitivity
rice root growth inhibition (rice (Oryza sativa); 6-day-old seedlings): could inhibit the root growth
degree of rice root growth inhibition compared with ES20 (rice (Oryza sativa); same dosage): much stronger than that of the same dosage of ES20
interaction with CESA6c ([3]; 100 nM GFP-CESA6c): interacted
relative binding affinity to CESA6c ([3]; MST): may have a higher binding affinity to CESA6c than ES20
interaction with CESA6c^P595S (GFP-CESA6c^P595S): interacts
